Measured values: ChEMBL document CHEMBL5579851, “Synthesis and antifungal evaluation of novel triazole derivatives bearing a pyrazole-methoxyl moiety” (Eur J Med Chem, 2024)
Converted amounts (≈) assume the structure as drawn.

What follows are molecules tested on Candida albicans (assay: Antifungal activity against Candida albicans SC5314 assessed as inhibition of fungal growth incubated for 48 hrs by CLSI based broth microdilution assay). Conditions: not given.
Assay type: functional

Cc1ccc(Cn2ccc(CO[C@H](C)[C@](O)(Cn3cncn3)c3ccc(F)cc3F)n2)cc1 and COc1ccc(Cn2ccc(CO[C@H](C)[C@](O)(Cn3cncn3)c3ccc(F)cc3F)n2)cc1 cannot be ordered by MIC: no more than 0.125 µg/mL for the first, no more than 0.125 µg/mL for the second.

Compared with C[C@@H](OCc1ccn(Cc2ccccc2)n1)[C@](O)(Cn1cncn1)c1ccc(F)cc1F, C[C@@H](OCc1ccn(Cc2ccc(Cl)cc2F)n1)[C@](O)(Cn1cncn1)c1ccc(F)cc1F is lower in MIC: 0.5 µg/mL (≈ 1.14 µM) for the first, no more than 0.125 µg/mL for the second.

C[C@@H](OCc1ccn(Cc2ccc(OC(F)(F)F)cc2)n1)[C@](O)(Cn1cncn1)c1ccc(F)cc1F and C[C@@H](OCc1ccn(Cc2c(F)cc(F)cc2F)n1)[C@](O)(Cn1cncn1)c1ccc(F)cc1F are the same in MIC: 0.25 µg/mL (≈ 0.478 µM) for the first, 0.25 µg/mL (≈ 0.507 µM) for the second.

These molecules were tested on Candida albicans (assay: Antifungal activity against Candida albicans 10231 assessed as inhibition of fungal growth incubated for 48 hrs by CLSI based broth microdilution assay). Conditions: not given.
Assay type: functional

In order of falling MIC:
1. C[C@@H](OCc1ccn(Cc2ccccc2)n1)[C@](O)(Cn1cncn1)c1ccc(F)cc1F  0.5 µg/mL (≈ 1.14 µM)
2. C[C@@H](OCc1ccn(Cc2c(F)cc(F)cc2F)n1)[C@](O)(Cn1cncn1)c1ccc(F)cc1F  0.5 µg/mL (≈ 1.01 µM)
3. Cc1ccc(Cn2ccc(CO[C@H](C)[C@](O)(Cn3cncn3)c3ccc(F)cc3F)n2)cc1  0.25 µg/mL (≈ 0.551 µM)
4. C[C@@H](OCc1ccn(Cc2ccc(OC(F)(F)F)cc2)n1)[C@](O)(Cn1cncn1)c1ccc(F)cc1F  0.25 µg/mL (≈ 0.478 µM)
5. C[C@@H](OCc1ccn(Cc2ccc(Cl)cc2F)n1)[C@](O)(Cn1cncn1)c1ccc(F)cc1F  0.25 µg/mL (≈ 0.508 µM)
6. COc1ccc(Cn2ccc(CO[C@H](C)[C@](O)(Cn3cncn3)c3ccc(F)cc3F)n2)cc1  0.25 µg/mL (≈ 0.532 µM)

These molecules were tested on Cryptococcus neoformans (assay: Antifungal activity against Cryptococcus neoformans 32609 assessed as inhibition of fungal growth incubated for 72 hrs by CLSI based broth microdilution assay). Conditions: not given.
Assay type: functional

In order of falling MIC:
1. Cc1ccc(Cn2ccc(CO[C@H](C)[C@](O)(Cn3cncn3)c3ccc(F)cc3F)n2)cc1  0.5 µg/mL (≈ 1.1 µM)
2. C[C@@H](OCc1ccn(Cc2ccc(OC(F)(F)F)cc2)n1)[C@](O)(Cn1cncn1)c1ccc(F)cc1F  0.5 µg/mL (≈ 0.955 µM)
3. COc1ccc(Cn2ccc(CO[C@H](C)[C@](O)(Cn3cncn3)c3ccc(F)cc3F)n2)cc1  0.5 µg/mL (≈ 1.06 µM)
4. C[C@@H](OCc1ccn(Cc2c(F)cc(F)cc2F)n1)[C@](O)(Cn1cncn1)c1ccc(F)cc1F  0.5 µg/mL (≈ 1.01 µM)
5. C[C@@H](OCc1ccn(Cc2ccccc2)n1)[C@](O)(Cn1cncn1)c1ccc(F)cc1F  0.25 µg/mL (≈ 0.569 µM)
6. C[C@@H](OCc1ccn(Cc2ccc(Cl)cc2F)n1)[C@](O)(Cn1cncn1)c1ccc(F)cc1F  0.25 µg/mL (≈ 0.508 µM)

These molecules were tested on Nakaseomyces glabratus (assay: Antifungal activity against Candida glabrata 537 assessed as inhibition of fungal growth incubated for 48 hrs by CLSI based broth microdilution assay). Conditions: not given.
Assay type: functional

In order of rising MIC:
1. C[C@@H](OCc1ccn(Cc2ccccc2)n1)[C@](O)(Cn1cncn1)c1ccc(F)cc1F  0.25 µg/mL (≈ 0.569 µM)
2. C[C@@H](OCc1ccn(Cc2ccc(Cl)cc2F)n1)[C@](O)(Cn1cncn1)c1ccc(F)cc1F  0.25 µg/mL (≈ 0.508 µM)
3. COc1ccc(Cn2ccc(CO[C@H](C)[C@](O)(Cn3cncn3)c3ccc(F)cc3F)n2)cc1  0.5 µg/mL (≈ 1.06 µM)
4. C[C@@H](OCc1ccn(Cc2c(F)cc(F)cc2F)n1)[C@](O)(Cn1cncn1)c1ccc(F)cc1F  0.5 µg/mL (≈ 1.01 µM)
5. Cc1ccc(Cn2ccc(CO[C@H](C)[C@](O)(Cn3cncn3)c3ccc(F)cc3F)n2)cc1  2 µg/mL (≈ 4.41 µM)
6. C[C@@H](OCc1ccn(Cc2ccc(OC(F)(F)F)cc2)n1)[C@](O)(Cn1cncn1)c1ccc(F)cc1F  2 µg/mL (≈ 3.82 µM)

The molecules below were run on Candida parapsilosis (assay: Antifungal activity against Candida parapsilosis 22019 assessed as inhibition of fungal growth incubated for 48 hrs by CLSI based broth microdilution assay). Conditions: Lodderomyces parapsilosis.
Assay type: functional

In order of falling MIC:
1. COc1ccc(Cn2ccc(CO[C@H](C)[C@](O)(Cn3cncn3)c3ccc(F)cc3F)n2)cc1  1 µg/mL (≈ 2.13 µM)
2. C[C@@H](OCc1ccn(Cc2ccccc2)n1)[C@](O)(Cn1cncn1)c1ccc(F)cc1F  0.5 µg/mL (≈ 1.14 µM)
3. C[C@@H](OCc1ccn(Cc2ccc(OC(F)(F)F)cc2)n1)[C@](O)(Cn1cncn1)c1ccc(F)cc1F  0.5 µg/mL (≈ 0.955 µM)
4. C[C@@H](OCc1ccn(Cc2ccc(Cl)cc2F)n1)[C@](O)(Cn1cncn1)c1ccc(F)cc1F  0.5 µg/mL (≈ 1.02 µM)
5. C[C@@H](OCc1ccn(Cc2c(F)cc(F)cc2F)n1)[C@](O)(Cn1cncn1)c1ccc(F)cc1F  0.5 µg/mL (≈ 1.01 µM)
6. Cc1ccc(Cn2ccc(CO[C@H](C)[C@](O)(Cn3cncn3)c3ccc(F)cc3F)n2)cc1  0.25 µg/mL (≈ 0.551 µM)

These molecules were tested on Pichia kudriavzevii (assay: Antifungal activity against Candida krusei 4996 assessed as inhibition of fungal growth incubated for 48 hrs by CLSI based broth microdilution assay). Conditions: not given.
Assay type: functional

In order of rising MIC:
1. Cc1ccc(Cn2ccc(CO[C@H](C)[C@](O)(Cn3cncn3)c3ccc(F)cc3F)n2)cc1  2 µg/mL (≈ 4.41 µM)
2. C[C@@H](OCc1ccn(Cc2ccc(OC(F)(F)F)cc2)n1)[C@](O)(Cn1cncn1)c1ccc(F)cc1F  2 µg/mL (≈ 3.82 µM)
3. C[C@@H](OCc1ccn(Cc2ccc(Cl)cc2F)n1)[C@](O)(Cn1cncn1)c1ccc(F)cc1F  2 µg/mL (≈ 4.07 µM)
4. C[C@@H](OCc1ccn(Cc2ccccc2)n1)[C@](O)(Cn1cncn1)c1ccc(F)cc1F  4 µg/mL (≈ 9.1 µM)
5. COc1ccc(Cn2ccc(CO[C@H](C)[C@](O)(Cn3cncn3)c3ccc(F)cc3F)n2)cc1  8 µg/mL (≈ 17 µM)
6. C[C@@H](OCc1ccn(Cc2c(F)cc(F)cc2F)n1)[C@](O)(Cn1cncn1)c1ccc(F)cc1F  8 µg/mL (≈ 16.2 µM)

These molecules were tested on Candida tropicalis (assay: Antifungal activity against Candida tropicalis 8915 assessed as inhibition of fungal growth incubated for 48 hrs by CLSI based broth microdilution assay). Conditions: not given.
Assay type: functional

First: Cc1ccc(Cn2ccc(CO[C@H](C)[C@](O)(Cn3cncn3)c3ccc(F)cc3F)n2)cc1
Second: COc1ccc(Cn2ccc(CO[C@H](C)[C@](O)(Cn3cncn3)c3ccc(F)cc3F)n2)cc1
The MIC of the first is lower: 16 µg/mL (≈ 35.3 µM) for the first, greater than 64 µg/mL for the second.

First: C[C@@H](OCc1ccn(Cc2ccccc2)n1)[C@](O)(Cn1cncn1)c1ccc(F)cc1F
Second: C[C@@H](OCc1ccn(Cc2ccc(Cl)cc2F)n1)[C@](O)(Cn1cncn1)c1ccc(F)cc1F
The MIC of the first is 64-fold higher: 32 µg/mL (≈ 72.8 µM) for the first, 0.5 µg/mL (≈ 1.02 µM) for the second.

Going from C[C@@H](OCc1ccn(Cc2ccc(OC(F)(F)F)cc2)n1)[C@](O)(Cn1cncn1)c1ccc(F)cc1F to C[C@@H](OCc1ccn(Cc2c(F)cc(F)cc2F)n1)[C@](O)(Cn1cncn1)c1ccc(F)cc1F, the MIC rises from 0.5 µg/mL (≈ 0.955 µM) to 64 µg/mL (≈ 130 µM) (130-fold).

Each molecule was assayed on Candida albicans (assay: Antifungal activity against fluconazole-resistant Candida albicans 901 assessed as inhibition of fungal growth incubated for 48 hrs by CLSI based broth microdilution assay). Conditions: not given.
Assay type: functional

C[C@@H](OCc1ccn(Cc2ccc(Cl)cc2F)n1)[C@](O)(Cn1cncn1)c1ccc(F)cc1F gave an MIC of 16 µg/mL (≈ 32.5 µM).

Each molecule was assayed on Candida albicans (assay: Antifungal activity against fluconazole-resistant Candida albicans 904 assessed as inhibition of fungal growth incubated for 48 hrs by CLSI based broth microdilution assay). Conditions: not given.
Assay type: functional

Work on C[C@@H](OCc1ccn(Cc2ccc(Cl)cc2F)n1)[C@](O)(Cn1cncn1)c1ccc(F)cc1F yielded an MIC of 8 µg/mL (≈ 16.3 µM).

The molecules below were run on [Candida] auris (assay: Antifungal activity against fluconazole-resistant Candida auris 891 assessed as inhibition of fungal growth incubated for 48 hrs by CLSI based broth microdilution assay). Conditions: Candidozyma auris.
Assay type: functional

Work on C[C@@H](OCc1ccn(Cc2ccc(Cl)cc2F)n1)[C@](O)(Cn1cncn1)c1ccc(F)cc1F yielded an MIC of 8 µg/mL (≈ 16.3 µM).

What follows are molecules tested on [Candida] auris (assay: Antifungal activity against fluconazole-resistant Candida auris 918 assessed as inhibition of fungal growth incubated for 48 hrs by CLSI based broth microdilution assay). Conditions: Candidozyma auris.
Assay type: functional

With C[C@@H](OCc1ccn(Cc2ccc(Cl)cc2F)n1)[C@](O)(Cn1cncn1)c1ccc(F)cc1F the MIC was 32 µg/mL (≈ 65.1 µM).

What follows are molecules tested on [Candida] auris (assay: Antifungal activity against fluconazole-resistant Candida auris 919 assessed as inhibition of fungal growth incubated for 48 hrs by CLSI based broth microdilution assay). Conditions: Candidozyma auris.
Assay type: functional

In the case of C[C@@H](OCc1ccn(Cc2ccc(Cl)cc2F)n1)[C@](O)(Cn1cncn1)c1ccc(F)cc1F, the MIC is reported as 16 µg/mL (≈ 32.5 µM).
